Experimental data taken from patent US10315996B2, “ROR gamma (RORγ) modulators” (LEAD PHARMA HOLDING B.V., priority 2015, dated 2019).

Experiments:
[1] = biological target: T1, RORγ (Homo sapiens, UniProt P51449); assay: RORγ GAL4 reporter gene assay; type: cell-based; conditions: inhibition of RORγ activity, GAL4-RORγ-LBD luciferase reporter in 293FT cells, overnight incubation; read-out: mean pIC50 (converted)
T1 construct: expressed in transfected cells; host or cells: 293FT cells (Invitrogen), expression vector pFN26A (Promega)
T1 sequence (P51449 269-508 limits assumed): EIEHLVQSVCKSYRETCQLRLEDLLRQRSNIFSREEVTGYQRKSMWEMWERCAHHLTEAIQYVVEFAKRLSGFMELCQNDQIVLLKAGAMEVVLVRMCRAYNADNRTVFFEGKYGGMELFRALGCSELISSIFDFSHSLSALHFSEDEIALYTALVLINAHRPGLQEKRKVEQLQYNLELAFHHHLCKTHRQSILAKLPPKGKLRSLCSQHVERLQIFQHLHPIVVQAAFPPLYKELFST
Outline: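 293FT cells were transiently co-transfected with GAL4-DBD–RORγ-LBD (or GAL4-VP16 control) and a 9×UAS luc2P reporter, then plated at 60,000 cells/well. Compound was added at final 0.2% DMSO for 16-24 h at 37 °C, and inhibition was measured by firefly luciferase luminescence.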

[2] = test system: IL-17A production in anti-CD3/anti-CD28 stimulated peripheral blood mononuclear cells (PBMCs); assay: Peripheral blood mononuclear cell (PBMC) IL-17 assay; type: cell-based; conditions: Homo sapiens, 120 h, inhibition of IL-17A production, PBMCs isolated from human blood, 5 days incubation, IL-17 ELISA, read-out: mean pIC50 (converted)
Description: PBMC IL-17 Assay Description
This assay is designed to measure the levels of IL-17A secreted from anti-CD3/anti-CD28 stimulated PBMCs with the aim of measuring RORγ mediated inhibition of IL-17A production.
The assay medium consists of 90% RPMI 1640 (Lonza), 10% heat inactivated fetal bovin serum (FBS, Lonza) and 100 U/mL penicillin/streptomycin solution.
Anti-CD3 antibody (BD Pharmingen) was diluted to 10 μg/ml in PBS (Lonza). 30 μL of 10 μg/ml anti-CD3 solution was added to the inner 60 wells, excluding any negative control wells, of a 96-well cell culture treated U-bottom plate (Greiner). Plates were incubated overnight (16-24 hours) at 37° C. and 5% CO2.
Peripheral blood mononuclear cells were separated from buffy coats (Sanquin) using Ficoll-Paque PREMIUM separation medium (GE Healthcare Life Sciences) according to manufacturer's protocol and re-suspended in assay medium at 37° C.
Test compounds were diluted, starting from a 10 mM dimethylsulfoxide (DMSO) stock solution, to serial dilutions in DMSO at 200× the final test concentration. Subsequently, these solutions were diluted in two dilution steps in assay medium to 10× the final test concentration. The DMSO concentration of the 10× test compound solution was 5%.
Anti-CD28 antibody (BD Pharmingen) was diluted to 20 μg/mL in PBS. The PBMCs were diluted to a concentration of 2.5×10^6 cells/mL in assay medium at 37° C.
For compound screening, the anti-CD3 coated plates were washed three times with PBS, the wells were subsequently aspirated using vacuum. To each screening well 80 μL of the PBMC suspension, 10 μL of the anti-CD28 solution and 10 μL of the 10× test compound solution was added, resulting in the final test concentration with 0.5% DMSO. All outer wells were filled with assay medium to prevent evaporation. Plates were incubated for 5 days at 37° C. and 5% CO2.
After incubation the plates were spun down at 1500 rpm for 4 minutes and the supernatant was collected. Subsequently, the IL-17A levels in the supernatants was determined using an IL-17 ELISA kit (human IL-17 DuoSet, R&D systems) according to manufacturer's protocol.
The half maximum inhibitory concentration ([…]) values for the test compounds were calculated from the IL-17A signal using GraphPad Prism software (GraphPad Software).

Q: With `CCN(C(=O)c1ccc(NC(=O)Cc2ccc(S(=O)(=O)NC3CC3)cc2)cc1)c1ccc(C)cc1` [Example 45, 4-{2-[4-(cyclopropylsulfamoyl)phenyl]acetamido}-N-ethyl-N-(4-methylphenyl) benzamide] as the molecule, how does the IC50 [1] read?
A: ≤ 10 nM

Q: What about the IC50 [2] of the same molecule?
A: ≤ 1000 nM

Q: What does the source list for `CCN(C(=O)c1ccc(NC(=O)Cc2ccc(S(=O)(=O)CC3CC3)cc2)cc1)c1ccon1` [Example 103, 4-[2-(4-cyclopropylmethanesulfonylphenyl)acetamido]-N-ethyl-N-(1,2-oxazol-3-yl)benzamide]?
A: IC50 [1]: ≤ 10 nM; IC50 [2]: ≤ 1000 nM

Q: With `CC(C)(NC(=O)c1ccc(NC(=O)Cc2ccc(S(=O)(=O)CC3CC3)cc2)cc1)c1ccccc1` [Example 6, 4-[2-(4-cyclopropylmethanesulfonylphenyl)acetamido]-N-(2-phenylpropan-2-yl)benzamide] as the molecule, how does the IC50 [1] read?
A: ≤ 100 nM

Q: What about the IC50 [2] of the same molecule?
A: ≤ 1000 nM

Q: Which IC50 [1] does the source give for `CCCN(CC1CC1)C(=O)c1ccc(NC(=O)Cc2ccc(S(=O)(=O)CC3CC3)cc2)cc1` [Example 9, 4-[2-(4-cyclopropylmethanesulfonylphenyl)acetamido]-N-(cyclopropylmethyl)-N-propylbenzamide] here?
A: ≤ 100 nM

Q: And the IC50 [2]?
A: ≤ 1000 nM

Q: With `C[C@H](NC(=O)c1ccc(NC(=O)Cc2ccc(S(=O)(=O)CC3CC3)cc2)cc1)c1ccccc1F` [Example 71, 4-[2-(4-cyclopropylmethanesulfonylphenyl)acetamido]-N-[(1S)-1-(2-fluorophenyl)ethyl]benzamide] as the molecule, how does the IC50 [1] read?
A: ≤ 100 nM

Q: What about the IC50 [2] of the same molecule?
A: ≤ 1000 nM

Q: With `CC(C)(C)N(C(=O)c1ccc(NC(=O)Cc2ccc(S(=O)(=O)CC3CC3)nc2)c(F)c1)c1ccccc1` [Example 159, N-tert-butyl-4-[2-(6-cyclopropylmethanesulfonylpyridin-3-yl)acetamido]-3-fluoro-N-phenylbenzamide] as the molecule, how does the IC50 [1] read?
A: ≤ 10 nM
